The text below walks through data of patent publication US11498909B2, “Compound acting as antibiotics” (KBP BIOSCIENCES CO., LTD., priority 2018, dated 2022).

Converted amounts (≈) assume the structure as drawn. Where two headings read alike, the source gives them in different places.

The nature of data set [1]: Pharmacokinetics (PK) determination in SD rats (Experiment 4). It counts as in vivo. The note with it: plasma; for Cl_obs / Vz_obs / t1/2z / λ_z: IV 2 mg/kg; for AUC(0-t) / AUC(0-inf): Sprague-Dawley (SD), rat, iv, 2 mg/kg; for AUC(0-inf): read-out: AUCINF_obs. Here is the method:
The compound of the present invention, self-prepared and dissolved in a suitable solvent.
Instrument and equipment: API4000 LC-MS/MS
Chromatographic column: Waters XBridge C18(2.1×50 mm, […])
Rat blood collection: Animals were fixed. The animal's tail was heated with a water bathtub 10 minutes before each time point. About 200 μL of the blood was collected through the caudal vein. After the blood collection, the blood was placed in an anticoagulation tube containing heparin sodium. The blood samples were centrifuged at 8000 rpm for 6 minutes at 4° C. to obtain plasma samples. The plasma must be prepared within 30 minutes after the blood collection. The plasma was stored in a refrigerator at −80° C. before the test.
(1) Test samples were removed from the refrigerator (−80° C.), naturally thawed at room temperature, and then vortexed for 5 minutes;
(2) 20 μL sample was precisely pipetted to a 1.5 mL centrifuge tube;
(3) 200 μL of the internal standard solution was added;
(4) The mixture was vortexed for 5 minutes and centrifuged for 5 minutes (12000 revolutions per minute);
(5) 100 μL of the supernate was precisely pipetted, 100 μL of water was added, the mixture was vortexed for 5 minutes, and the sample was sent to LC-MS/MS for analysis.
The results of the concentrations of the test samples (plasma samples) were output with Analyst 1.6.1 of AB Corporation. The meaning value, the standard deviation, the coefficient of variation, and other parameters (not necessary to calculate the parameter that can be directly output from Analyst 1.6.1) were calculated with Microsoft Excel, and the PK parameter is calculated with Pharsight Phoenix 6.1 software.

The test system of the next data set is Pseudomonas aeruginosa. As to the kind of experiment: In vitro antibacterial activity, agar dilution MIC (Experiment 1). The format is cell-based. How it is done:
(§1) Tested strains: all the clinically separated strains below were purchased from public facilities.
(§2) Escherichia coli ATCC25922, Pseudomonas aeruginosa ATCC27853, Klebsiella pneumoniae ATCC700603, and the like.
(§3) Tested Samples: Imipenem, Ceftazidime: Commercial Products, the Following Experiments were Carried Out According to the Content of an Effective Ingredient in Each Commercial Product;
(§4) The compounds of the present invention, their chemical names, and preparation methods are shown in the preparation example of each compound.
(§5) Experiment method: Agar dilution method, refer to National Committee for Clinical Laboratory Standards. 2006. Methods for Dilution Antimicrobial Susceptibility Tests for Bacteria That Grow Aerobically; Approved Standard—Seventh Edition M7-A7, Vol 26, No. 2, 2006, to determine the MIC of the compound. MIC represents the minimum inhibitory concentration.

Another data set has as its system Escherichia coli. The description is as above. It counts as cell-based. How it is done: as §1, §2, §3, §4, §5
For another data set, the system named is Klebsiella pneumoniae. Described as above. It counts as cell-based. How it is done: as §1, §2, §3, §4, §5
The test system of data set [2] is polymyxin-resistant mcr-1 positive Enterobacteriaceae. As to the kind of experiment: In vitro antibacterial effect on polymyxin-resistant mcr-1 positive Enterobacteriaceae, agar dilution MIC (Experiment 2). The format is cell-based, Escherichia coli. Here is the method:
Tested samples: the compounds of the present invention, prepared according to the methods of the preparation examples;
Polymyxin E sulphate, Ampicillin, Cefotaxime, Gentamicin, Ciprofloxacin, Tetracycline, and Bactrim were all commercial products, the following experiments were carried out according to the content of an effective ingredient in each commercial product.
Tested strains: Escherichia coli carrying mcr-1 gene isolated from animals and Escherichia coli ATCC25922, a quality control strain, were provided by South China Agricultural University.
With reference to the agar dilution method in CLSI, the MIC value of the tested drugs to the polymyxin resistant mcr-1 positive Escherichia coli were determined.
Preparation of drug-containing agar plates: a drug solution with the highest concentration was prepared for each compound; the drug solution with the highest concentration was subjected to the double dilution; for each of dilution gradient, 1 mL (20×drug working solution) of the drug solution was added to 19 mL MH agar at 45-50° C.; immediately after addition, the agar and the drug solution were uniformly mixed to give a drug-containing agar plate with final concentrations of […], and the plate was solidified for later use; and in the meanwhile, a growth control group was arranged.
Inoculum preparation and culture: the strains stored at −80° C. were rejuvenated and formulated with broth so that the turbidity reached or exceeded 0.5 #McFarland unit; a 96-well plate was used as the inoculation tank, and the bacterial solution was diluted with sodium chloride injection so that the content of bacteria inoculated on the agar was 10^4 CFU/point. A multi-point inoculation instrument was used to inoculate the bacterial solution to the surface of the labeled drug-containing agar. After the water in the inoculation point was completely absorbed by the agar, the plate was placed upside down in a 37° C. constant-temperature incubator and incubated for 16-20 hours.
(In general: In agar dilution the substance is mixed into plates at graded concentrations.)

Where [3] appears, read: agar dilution (Table 3), read-out: MIC50.
Setting [4] is: agar dilution (Table 3), read-out: MIC90.

`C[C@@H](O)[C@H](NC(=O)c1ccc(C#CC#Cc2ccc(CN(C)C)o2)cc1)C(=O)NO` [Compound 4, 4-((5-((dimethylamino)methyl)furan-2-yl)buta-1,3-diynyl)-N-((2S,3R)-3-hydroxy-1-(hydroxyamino)-1-oxobutan-2-yl)benzamide]: in data set [1], the Cl_obs is 80 ± 1.83 mL/min/kg, the Vz_obs was found to be 1.74 ± 0.81 L/kg, the t1/2z came to 15 ± 7.2 min and the λ_z is 3.16 ± 1.28 h⁻¹. Also, in data set [1], the AUC(0-t) (as a rule, the area under the concentration-time curve up to a stated or last time point) was found to be 414 ± 10.3 ng·h/mL and the AUC(0-inf) is 417 ± 9.68 ng·h/mL. In addition, in the data set with Pseudomonas aeruginosa, the MIC50 (usually an inhibitory concentration at the 50% level, which refers to growth in some studies and to a panel of isolates in others) was 1 µg/mL (≈ 2.44 µM); the MIC90 (commonly the lowest concentration that inhibits either 90% of growth or 90% of the strains tested, depending on the study) stood at 4 µg/mL (≈ 9.77 µM). In the data set on Escherichia coli, this compound showed an MIC50 of 0.25 µg/mL (≈ 0.611 µM) and an MIC90 of 0.25 µg/mL (≈ 0.611 µM). In the data set on Klebsiella pneumoniae, the MIC50 was found to be 1 µg/mL (≈ 2.44 µM) and the MIC90 amounted to 2 µg/mL (≈ 4.88 µM).

On to `C[C@@H](O)[C@H](NC(=O)c1ccc(C#CC#Cc2ccc(CNCCOCCO)o2)cc1)C(=O)NO` [Compound 18, N-((2S,3R)-3-hydroxy-1-(hydroxyamino)-1-oxobutan-2-yl)-4-((5-((2-(2-hydroxyethoxy)ethylamino)methyl)furan-2-yl)buta-1,3-diynyl)benzamide], for which the MIC50 in the data set with Pseudomonas aeruginosa (setting [3]) is 1 µg/mL (≈ 2.13 µM); with Klebsiella pneumoniae (agar dilution, read-out: MIC50), 2 µg/mL (≈ 4.26 µM). Further, the MIC90 turned out to be 4 µg/mL (≈ 8.52 µM) in the data set on Pseudomonas aeruginosa (setting [4]) and 2 µg/mL (≈ 4.26 µM) in the data set with Klebsiella pneumoniae (agar dilution, read-out: MIC90).

As to `CNC(=O)C(C(=O)NO)N(C)C(=O)c1ccc(C#CC#Cc2ccc(CO)o2)cc1` (stereo not shown) [Compound 5, N-methyl-N-(3-methylamino-1-(hydroxyamino)-1,3-dioxopropan-2-yl)-4-((5-(hydroxymethyl)furan-2-yl)buta-1,3-diynyl)benzamide], in data set [1], the Cl_obs worked out at 10.3 ± 1.3 mL/min/kg, the Vz_obs was 0.63 ± 0.02 L/kg, the t1/2z was 42.6 ± 6.6 min and the λ_z was found to be 0.99 ± 0.15 h⁻¹. In addition, in data set [1], the AUC(0-t) is 8110 ± 1050 ng·h/mL and the AUC(0-inf) worked out at 8150 ± 1040 ng·h/mL. This compound gave an MIC50 with Pseudomonas aeruginosa of 0.125 µg/mL (≈ 0.305 µM). In the data set on Pseudomonas aeruginosa (setting [4]), the MIC90 came out at 1 µg/mL (≈ 2.44 µM). Moreover, the MIC50 in the data set on Escherichia coli (agar dilution, read-out: MIC50) came out at 2 µg/mL (≈ 4.89 µM). The MIC90 in the data set with Escherichia coli (agar dilution, read-out: MIC90) was 4 µg/mL (≈ 9.77 µM). The MIC90 in data set [2] (Escherichia coli, read-out: MIC90 Value, polymyxin-resistant mcr-1 positive Escherichia coli, agar dilution) stood at 0.5 µg/mL (≈ 1.22 µM). In addition, the “MIC90 Value” in data set [2] (polymyxin-resistant mcr-1 positive Escherichia coli, agar dilution) came out at 1 µg/mL (≈ 2.44 µM).

In data set [1], `C[C@@H](O)[C@H](NC(=O)c1ccc(C#CC#Cc2ccc(CO)s2)cc1)C(=O)NO` [Compound 41, N-((2S,3R)-3-hydroxy-1-(hydroxyamino)-1-oxobutan-2-yl)-4-((5-(hydroxymethyl)thienyl-2-yl)buta-1,3-diynyl)benzamide] displayed a Cl_obs of 22 ± 5.5 mL/min/kg, a Vz_obs of 0.61 ± 0.20 L/kg, a t1/2z of 19.2 ± 2.4 min and a λ_z of 2.21 ± 0.29 h⁻¹. In data set [1], the AUC(0-t) worked out at 1590 ± 447 ng·h/mL and the AUC(0-inf) amounted to 1590 ± 446 ng·h/mL. Also, the MIC50 in the data set on Pseudomonas aeruginosa (setting [3]) worked out at 0.25 µg/mL (≈ 0.627 µM). Moreover, the MIC90 in the data set on Pseudomonas aeruginosa (setting [4]) turned out to be 1 µg/mL (≈ 2.51 µM). The MIC50 with Escherichia coli (agar dilution, read-out: MIC50) is at most 0.03 µg/mL. For the same compound, the MIC90 with Escherichia coli (agar dilution, read-out: MIC90) came to 0.06 µg/mL (≈ 0.151 µM). Moreover, the MIC50 in the data set on Klebsiella pneumoniae (agar dilution, read-out: MIC50) is 0.125 µg/mL (≈ 0.314 µM). Besides, in the data set on Klebsiella pneumoniae (agar dilution, read-out: MIC90), the MIC90 is 0.25 µg/mL (≈ 0.627 µM).

As for `C[C@@H](O)[C@H](NC(=O)c1ccc(C#CC#Cc2ccc(CNC3CC3)o2)cc1)C(=O)NO` [Compound 11, 4-((5-((cyclopropylamino)methyl)furan-2-yl)buta-1,3-diynyl)-N-((2S,3R)-3-hydroxy-1-(hydroxamino)-1-oxobutan-2-yl)benzamide], the MIC50 turned out to be 1 µg/mL (≈ 2.37 µM) in the data set with Pseudomonas aeruginosa (setting [3]); 0.125 µg/mL (≈ 0.297 µM) in the data set on Escherichia coli (agar dilution, read-out: MIC50); 0.5 µg/mL (≈ 1.19 µM) in the data set with Klebsiella pneumoniae (agar dilution, read-out: MIC50). For the same compound, the MIC90 was 8 µg/mL (≈ 19 µM) with Pseudomonas aeruginosa (setting [4]); 0.25 µg/mL (≈ 0.593 µM) in the data set with Escherichia coli (agar dilution, read-out: MIC90); 2 µg/mL (≈ 4.75 µM) in the data set with Klebsiella pneumoniae (agar dilution, read-out: MIC90).
